What was measured:
[1] = test system: Small intestine; test: Drug absorption in rat small intestine; type: ADME, tissue-based; conditions: in vivo
[2] = physchem; conditions: octanol/aqueous phase
[3] = test system: Colon; test: Drug absorption in anesthetized rat colon at pH 6.8; type: ADME, tissue-based; conditions: in vivo
[4] = octanol/water
[5] = physchem; conditions: octanol/water
Description: (§1) Octanol-water partition coefficient, log P of the compound

[6] = physchem; conditions: pH 7.8
Description: Dissociation constant, pKa of the compound at pH 7.8

[7] = test system: Neuron; test: Increase in membrane potential in mollusc neurons assessed as conductance of potassium at pH 7.8 relative to salicylic acid; type: functional, Mollusca
[8] = physchem; conditions: pH 6.8
Description: Dissociation constant, pKa of the compound at pH 6.8

[9] = physchem; conditions: octanol/aqueous phase; remark: listed apart in the source
Description: Octanol-aqueous phase partition coefficient, log P of the compound

[10] = physchem
[11] = octanol/water; remark: listed apart in the source
Description: as §1

[12] = Octanol-aqueous phase distribution coefficient, log D of the compound at pH 5; type: physicochemical
[13] = Uncoupling of oxidative phosphorylation in rat liver mitochondria at pH 6 relative to control; type: functional
[14] = Uncoupling of oxidative phosphorylation in rat liver mitochondria at pH 7 relative to control; type: functional
[15] = Octanol-aqueous phase distribution coefficient, log D of the compound at pH 7; type: physicochemical
[16] = Uncoupling of oxidative phosphorylation in rat liver mitochondria at pH 8 relative to control; type: functional
[17] = Octanol-aqueous phase distribution coefficient, log D of the compound at pH 6; type: physicochemical
[18] = Octanol-aqueous phase distribution coefficient, log D of the compound at pH 8; type: physicochemical
[19] = Uncoupling of oxidative phosphorylation in rat liver mitochondria at pH 5 relative to control; type: functional
[20] = Dissociation constant, pKa of the compound at pH 5.3; type: physicochemical
[21] = Octanol-aqueous phase […] of the compound at pH 7.10; type: physicochemical; conditions: pH 7.1
[22] = Dissociation constant, pKa of the compound by titrimetric analysis; type: physicochemical

Nc1ccccc1 [ANILINE]
log%Abs [1]: 1.73
logD [2]: 0.82
log%Abs [3]: 1.64

O=C(O)c1ccccc1Cl
logD [4]: -2.9
logP [5]: 1.98
pKa [6]: 4.88
fold change (FC) [7]: -0.7

O=[N+]([O-])c1ccccc1O [NITROPHENOLATE]
pKa [8]: 0.2
logD [2]: 1.58
logP [9]: 1.79
log%Abs [3]: 1.74

O=C(O)c1cc(Cl)cc(Cl)c1O
pKa [10]: 2.3
logD [2]: -1.62
logP [11]: 3.88
pKa [6]: 5.5
fold change (FC) [7]: 1.48

O=[N+]([O-])c1cccc(O)c1 [3-NITRO-PHENOL]
pKa [8]: 1.4
logD [2]: 2
logP [9]: 2
log%Abs [3]: 1.64

CCCCC1C(=O)N(c2ccccc2)N(c2ccccc2)C1=O [PHENYLBUTAZONE]
log%Abs [3]: 1.58

CC(C)CCc1cc([N+](=O)[O-])c(O)c([N+](=O)[O-])c1
pKa [10]: 4.1
logD [12]: 2.82
fold change (FC) [13]: 5.42
fold change (FC) [14]: 5.18
logP [9]: 3.82
logD [15]: 0.92
fold change (FC) [16]: 4.92
logD [17]: 1.92
logD [18]: -0.08
fold change (FC) [19]: 5.5

Oc1ccccc1 [PHENOL]
log%Abs [3]: 1.55

O=C(O)c1ccccc1O [SALICYLIC ACID]
logD [4]: -2.62
log%Abs [3]: 1.08
logP [5]: 2.21

O=C(O)c1ccccc1 [BENZOIC ACID]
log%Abs [3]: 1.28

Cc1ccc(N)cc1
pKa [20]: 0
log%Abs [1]: 1.77
pKa [8]: 1.5
log%Abs [3]: 1.71

O=C(O)c1cccc(I)c1
logD [4]: -0.67
pKa [10]: 4
logP [5]: 3.13
fold change (FC) [7]: 0.6

CN1CC[C@]23CCCC[C@H]2[C@H]1Cc1ccc(O)cc13 [LEVORPHANOL]
logD [2]: 0.02
log%Abs [3]: 1.11
logD [21]: 3.02
pKa [22]: 3

O=C(O)c1c(O)cccc1O
pKa [10]: 2.7
logD [2]: -2.9
logP [5]: 2.2
pKa [6]: 5.1
fold change (FC) [7]: 0.18

c1ccc(CC2=NCCN2)cc1 [TOLAZOLINE]
pKa [20]: 5
log%Abs [1]: 0.78
pKa [8]: 3.5
logD [2]: -2.35
logP [9]: 2.65
log%Abs [3]: 0.6

O=C(O)c1cc(Br)cc(Br)c1O
pKa [10]: 2.26
logD [2]: -1.33
logP [5]: 4.21
pKa [6]: 5.54
fold change (FC) [7]: 1.6

O=C(O)c1ccc(O)cc1O [2,4-DIHYDROXYBENZOIC ACID]
pKa [10]: 4.7
logD [2]: -1.5
logP [5]: 1.6
fold change (FC) [7]: -1

CN[C@@H](C)[C@H](O)c1ccccc1 [EPHEDRINE]
log%Abs [1]: 0.85
log%Abs [3]: 0.95

O=C(O)c1cc(Cl)ccc1O [5-CHLOROSALICYLIC ACID]
pKa [10]: 2.63
logD [2]: -2.15
logP [5]: 3.02
pKa [6]: 5.17
fold change (FC) [7]: 1

O=C(O)c1cc(Br)ccc1O
pKa [10]: 2.62
logD [2]: -1.97
logP [5]: 3.21
pKa [6]: 5.18
fold change (FC) [7]: 1.23

O=[N+]([O-])c1ccc(O)cc1 [P-NITROPHENOL]
logD [12]: 1.96
fold change (FC) [13]: 3.37
fold change (FC) [14]: 3.51
logP [9]: 1.96
logD [15]: 1.66
fold change (FC) [16]: 3.39
logD [17]: 1.96
logD [18]: 0.96
fold change (FC) [19]: 3.3

O=C(O)c1cc([N+](=O)[O-])cc([N+](=O)[O-])c1O [3,5-DINITROSALICYLIC ACID]
logD [4]: -4.04
pKa [10]: 1.55
logP [5]: 2.21
pKa [6]: 6.25
fold change (FC) [7]: 0

O=C(O)c1ccc(Br)cc1
logD [4]: -0.96
pKa [10]: 3.98
logP [5]: 2.86
pKa [6]: 3.82
fold change (FC) [7]: 0.4

Cc1cc(=O)n(-c2ccccc2)n1C [ANTIPYRINE]
pKa [20]: 3.9
log%Abs [1]: 1.51
pKa [8]: 5.4
log%Abs [3]: 1.3

CC(C)CCCCCc1cc([N+](=O)[O-])c(O)c([N+](=O)[O-])c1
pKa [10]: 4.1
logD [12]: 4.32
fold change (FC) [13]: 5.89
fold change (FC) [14]: 5.64
logP [9]: 5.32
logD [15]: 2.42
fold change (FC) [16]: 5.41
logD [17]: 3.42
logD [18]: 1.42
fold change (FC) [19]: 6.08

CCCC(C)C1(CC)C(=O)NC(=S)NC1=O (stereo not given) [THIOPENTAL]
pKa [8]: 0.8
logD [2]: 2.44
logP [9]: 2.5
log%Abs [3]: 1.7

O=C(O)c1cc(I)ccc1O
pKa [10]: 2.65
logD [2]: -1.63
logP [5]: 3.52
pKa [6]: 5.15
fold change (FC) [7]: 1.43

C=C[C@H]1C[N@@]2CC[C@H]1C[C@H]2[C@H](O)c1ccnc2ccc(OC)cc12 [QUININE]
log%Abs [1]: 1.18
log%Abs [3]: 1.3

O=C(O)c1cccc([N+](=O)[O-])c1
logD [4]: -2.5
pKa [10]: 3.47
pKa [8]: 3.4
logP [9]: 1.83
log%Abs [3]: 1
logP [5]: 1.83
pKa [6]: 4.33
fold change (FC) [7]: -0.7

O=C(O)c1cccc(O)c1 [3-HYDROXYBENZOIC ACID]
logD [4]: -2.24
logP [5]: 1.5
pKa [6]: 3.74
fold change (FC) [7]: -1

CC(=O)Nc1ccccc1 [ACETANILIDE]
pKa [20]: 5
log%Abs [1]: 1.62
pKa [8]: 6.5
logD [2]: 1.16
log%Abs [3]: 1.56

O=C(O)c1ccc([N+](=O)[O-])cc1 [4-NITROBENZOIC ACID]
logD [4]: -2.5
pKa [10]: 3.41
logP [5]: 1.89
pKa [6]: 4.39
fold change (FC) [7]: -0.52

CCC(=O)c1ccc(O)cc1 [PAROXYPROPIONE]
pKa [8]: 1
logD [2]: 1.81
logP [9]: 1.85
log%Abs [3]: 1.66

O=C(O)c1cc(O)ccc1O [GENTISIC ACID]
pKa [6]: 4.83
fold change (FC) [7]: -0.7

O=C(O)c1ccc(I)cc1
logD [4]: -0.87
pKa [10]: 3.91
logP [5]: 3.02
pKa [6]: 3.89
fold change (FC) [7]: 0.54

Cc1c(N(C)C)c(=O)n(-c2ccccc2)n1C [AMINOPYRINE]
pKa [20]: 0.3
log%Abs [1]: 1.52
pKa [8]: 1.8
log%Abs [3]: 1.32

Cc1cc([N+](=O)[O-])c(O)c([N+](=O)[O-])c1C
pKa [10]: 4.2
logD [12]: 1.64
fold change (FC) [13]: 4.51
fold change (FC) [14]: 4.36
logP [9]: 2.54
logD [15]: -0.26
fold change (FC) [16]: 3.95
logD [17]: 0.74
logD [18]: -1.26
fold change (FC) [19]: 4.92

Cc1ccc(C(=O)O)cc1 [4-METHYLBENZOIC ACID]
logD [4]: -2.09
pKa [6]: 3.44

Nc1cccc([N+](=O)[O-])c1 [3-NITROANILINE]
pKa [20]: 2.8
log%Abs [1]: 1.89
pKa [8]: 4.3
logD [2]: 1.37
logP [9]: 1.37
log%Abs [3]: 1.68

Nc1ccc([N+](=O)[O-])cc1 [4-NITROANILINE]
log%Abs [1]: 1.83
log%Abs [3]: 1.7

O=C(O)c1ccc(Cl)c(Cl)c1
logD [4]: -0.68
pKa [10]: 3.66
logP [5]: 3.46
pKa [6]: 4.14
fold change (FC) [7]: 0.93

CC(C)Cc1cc([N+](=O)[O-])c(O)c([N+](=O)[O-])c1
pKa [10]: 4.3
logD [12]: 2.52
fold change (FC) [13]: 4.88
fold change (FC) [14]: 4.71
logP [9]: 3.32
logD [15]: 0.62
fold change (FC) [16]: 4.48
logD [17]: 1.62
logD [18]: -0.38
fold change (FC) [19]: 5.16

Cn1c(=O)c2[nH]cnc2n(C)c1=O.O [THEOPHYLLINE]
log%Abs [1]: 1.46
logD [2]: -0.78
logP [9]: -0.78

O=C(O)c1cccc(Cl)c1
logD [4]: -1.3
logP [5]: 2.68
pKa [6]: 3.98
fold change (FC) [7]: 0.18

O=C(O)c1cc(I)cc(I)c1O
pKa [10]: 2.33
logD [2]: -0.69
logP [5]: 4.78
pKa [6]: 5.47
fold change (FC) [7]: 2

O=C(O)c1cccc(Br)c1
logD [4]: -1.1
logP [5]: 2.84
pKa [6]: 3.94
fold change (FC) [7]: 0.48

O=C(O)c1cc([N+](=O)[O-])ccc1O
pKa [10]: 2.32
pKa [8]: 4.5
logD [2]: -3.27
logP [9]: 1.98
log%Abs [3]: 0.3
logP [5]: 2.21
pKa [6]: 5.48
fold change (FC) [7]: 0

COc1ccc(O)c(C(=O)O)c1
pKa [10]: 2.86
logD [2]: -2.53
logP [5]: 2.41
pKa [6]: 4.94
fold change (FC) [7]: 0.18
